Experimental data taken from paper PMC4869175, “Evidence that phytochrome functions as a protein kinase in plant light signalling” (Nature Communications, 2016).
Values belong to the molecule of their own block, whether it stands above or below them.

Experiments:
[1] = biological target: T1, photosensory core of AsphyA (66-610) (Avena sativa, UniProt P06593); assay: Binding parameters of ATP by Scatchard plot using BODIPY-FL-ATP; settings: as restated in Discussion; Scatchard plot with BODIPY-FL-ATP; read-out: Kd value (ATP-binding site)
T1 construct: the PAS-GAF-PHY photosensory core (66–610aa) were also cloned into pPIC3.5K; made in house; host or cells: Pichia pastoris GS115
T1 sequence (P06593 66-610): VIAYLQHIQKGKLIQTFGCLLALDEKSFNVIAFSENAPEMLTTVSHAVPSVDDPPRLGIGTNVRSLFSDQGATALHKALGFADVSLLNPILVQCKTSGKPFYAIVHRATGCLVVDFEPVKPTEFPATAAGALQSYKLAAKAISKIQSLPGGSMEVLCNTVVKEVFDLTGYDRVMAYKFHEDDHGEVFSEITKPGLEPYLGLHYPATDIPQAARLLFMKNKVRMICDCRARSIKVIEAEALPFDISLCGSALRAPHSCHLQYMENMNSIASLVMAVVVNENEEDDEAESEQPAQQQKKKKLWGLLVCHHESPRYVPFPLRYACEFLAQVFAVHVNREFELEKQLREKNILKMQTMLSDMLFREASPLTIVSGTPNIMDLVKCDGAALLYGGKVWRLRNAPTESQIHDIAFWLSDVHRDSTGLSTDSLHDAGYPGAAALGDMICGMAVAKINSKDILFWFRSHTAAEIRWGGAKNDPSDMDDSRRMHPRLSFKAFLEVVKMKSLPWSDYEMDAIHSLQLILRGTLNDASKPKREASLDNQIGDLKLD
Experimental: (§1) To estimate dissociation constant (Kd) and the number of binding sites (n) of ATP in AsphyA proteins, an ATP analogue BODIPY-FL-ATP (BODIPY FL 2′-(or-3′)-O-(N-(2-aminoethyl)urethane) adenosine triphosphate; Molecular Probes) was used. 0.5 μM AsphyA proteins were incubated with increasing concentration of BODIPY-FL-ATP (0.5–5 μM) for 10 min at 30 °C, and free (unbound) ATP analogue was separated from the ATP analogue-protein complex by using Amicon Ultra Centrifugal Filter with MWCO of 10,000 Da for 5 min at 4,000g. The spectrophotometric absorbance was then measured to determine the BODIPY-FL-ATP concentrations within flow-through and the complex solutions by using Shimadzu UV-1800 spectrophotometer. […] The concentrations of BODIPY-FL-ATP were also double-checked by measuring the emission intensity of BODIPY fluorophore at the excitation wavelength of 500 nm and emission wavelength of 515 nm. The fluorescence of free BODIPY-FL-ATP in the absence of any protein component was used as a linear standard curve. The Kd and n values were then calculated by a Scatchard plot of r/[BODIPY-FL-ATP]free versus r, where r is the molar ratio of [BODIPY-FL-ATP]bound to [AsphyA]total.
(§2) Supplementary Figure 12. Determination of binding parameters of ATP in AsphyA proteins. The number of binding sites (n) and dissociation constant (Kd) of ATP in AsphyA proteins were determined by Scatchard plots using an ATP analogue, BODIPY-FL-ATP (BODIPY® FL 2′-(or-3′)-O-(N-(2-aminoethyl)urethane) adenosine triphosphate). The n and Kd values were calculated from the slopes (-1/Kd) and x-axis intercepts (n) of the Scatchard plot of r/[BODIPY-FL-ATP]free versus r, where r was the molar ratio of [BODIPY-FL-ATP]bound to [AsphyA]total. The n values of full-length (FL) AsphyA and photosensory core (66-610) were both calculated at around one per polypeptide, and the Kd values were calculated at approximately 0.87 × 10^-6 M for FL-AsphyA, 0.72 × 10^-6 M for […]
(§3) level, possibly due to too low ATP binding.
(§4) (1 picture or pasted object on this page, not shown here)

D422R AsphyA mutant = biological target: T2, D422R AsphyA mutant (Avena sativa, UniProt P06593, D422R); assay: as above; settings: Scatchard plot with BODIPY-FL-ATP; result in words
T2 construct: After preparing purified full-length AsphyA mutants; made in house; host or cells: Pichia pastoris GS115
T2 sequence (P06593 whole entry D422R): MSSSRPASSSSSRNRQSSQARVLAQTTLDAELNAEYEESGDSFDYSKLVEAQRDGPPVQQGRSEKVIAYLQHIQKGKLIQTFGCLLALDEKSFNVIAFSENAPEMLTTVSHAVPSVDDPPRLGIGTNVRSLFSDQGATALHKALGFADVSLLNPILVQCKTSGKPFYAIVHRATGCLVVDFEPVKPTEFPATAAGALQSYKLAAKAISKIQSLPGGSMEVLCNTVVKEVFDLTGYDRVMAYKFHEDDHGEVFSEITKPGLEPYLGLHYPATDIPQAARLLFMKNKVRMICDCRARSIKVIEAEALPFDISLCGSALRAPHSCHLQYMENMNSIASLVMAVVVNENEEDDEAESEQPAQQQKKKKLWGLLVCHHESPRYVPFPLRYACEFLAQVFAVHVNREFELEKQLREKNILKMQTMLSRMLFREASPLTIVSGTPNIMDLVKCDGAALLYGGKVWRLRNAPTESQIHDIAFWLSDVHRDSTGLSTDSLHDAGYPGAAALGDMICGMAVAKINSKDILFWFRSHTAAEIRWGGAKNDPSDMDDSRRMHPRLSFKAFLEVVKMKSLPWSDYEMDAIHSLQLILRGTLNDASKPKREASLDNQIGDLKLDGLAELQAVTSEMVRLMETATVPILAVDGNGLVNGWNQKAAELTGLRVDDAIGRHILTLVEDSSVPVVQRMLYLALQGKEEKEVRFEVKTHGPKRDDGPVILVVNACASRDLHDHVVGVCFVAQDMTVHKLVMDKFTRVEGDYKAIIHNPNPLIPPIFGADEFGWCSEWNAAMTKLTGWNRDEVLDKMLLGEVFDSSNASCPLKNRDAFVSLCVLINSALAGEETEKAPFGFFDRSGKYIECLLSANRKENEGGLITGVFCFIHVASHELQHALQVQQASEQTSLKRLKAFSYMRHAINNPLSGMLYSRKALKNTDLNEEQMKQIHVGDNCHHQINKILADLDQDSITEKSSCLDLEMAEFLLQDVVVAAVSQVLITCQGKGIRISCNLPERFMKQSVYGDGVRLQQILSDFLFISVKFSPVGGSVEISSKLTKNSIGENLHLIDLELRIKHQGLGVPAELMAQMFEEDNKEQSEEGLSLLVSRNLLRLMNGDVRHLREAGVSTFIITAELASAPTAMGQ
Experimental: as §1, §2, §3, §4

K411L AsphyA mutant = biological target: T3, K411L AsphyA mutant (Avena sativa, UniProt P06593, K411L); assay: as above
T3 construct: After preparing purified full-length AsphyA mutants; made in house; host or cells: Pichia pastoris GS115
T3 sequence (P06593 whole entry K411L): as the sequence (P06593 whole entry D422R) above, with K411L, R422D counted along it
Experimental: as §1, §2, §3, §4

T418D AsphyA mutant = biological target: T4, T418D AsphyA mutant (Avena sativa, UniProt P06593, T418D); assay: as above
T4 construct: After preparing purified full-length AsphyA mutants; made in house; host or cells: Pichia pastoris GS115
T4 sequence (P06593 whole entry T418D): as the sequence (P06593 whole entry D422R) above, with T418D, R422D counted along it
Experimental: as §1, §2, §3, §4

[2] = biological target: T5, PAS-GAF-PHY photosensory core of AsphyA (66-610aa) (Avena sativa, UniProt P06593 66-610, phycocyanobilin chromophore assembled (chromophore-binding site C322)); assay: pull-down; GST/strep-fused interacting protein (1.0 μg) held on glutathione resin, phytochrome (1.0 μg) in solution, Pr and Pfr forms both tested; 60 min at 4 °C in pull-down buffer (100 mM Tris-HCl pH 7.8, 1 mM EDTA, 150 mM NaCl, 100 μg/ml BSA); western blot with oat22 and anti-GST; settings: both partners purified
T5 construct: Avena sativa phytochrome A, residues 66-610 (PAS-GAF-PHY photosensory core); also called the photosensory core; source: phycocyanobilin added in vitro
T5 sequence (looked up): T1 sequence (P06593 66-610)

Molecule: Nc1ncnc2c1ncn2[C@@H]1O[C@H](COP(=O)(O)OP(=O)(O)OP(=O)(O)O)[C@@H](O)[C@H]1O [ATP]
Kd [1]: 720 nM | dissociation constant (Kd) of ATP (D422R AsphyA mutant): could not obtain the Kd value at micromolar level | Kd (K411L AsphyA mutant): ~1320 nM | Kd (T418D AsphyA mutant): 4760 nM

binding result [2]: binds
B1: GST/strep-fused PIF3 (natural protein, UniProt O80536 1-524, looked up)
chain: MPLFELFRLTKAKLESAQDRNPSPPVDEVVELVWENGQISTQSQSSRSRNIPPPQANSSRAREIGNGSKTTMVDEIPMSVPSLMTGLSQDDDFVPWLNHHPSLDGYCSDFLRDVSSPVTVNEQESDMAVNQTAFPLFQRRKDGNESAPAASSSQYNGFQSHSLYGSDRARDLPSQQTNPDRFTQTQEPLITSNKPSLVNFSHFLRPATFAKTTNNNLHDTKEKSPQSPPNVFQTRVLGAKDSEDKVLNESVASATPKDNQKACLISEDSCRKDQESEKAVVCSSVGSGNSLDGPSESPSLSLKRKHSNIQDIDCHSEDVEEESGDGRKEAGPSRTGLGSKRSRSAEVHNLSERRRRDRINEKMRALQELIPNCNKVDKASMLDEAIEYLKSLQLQVQIMSMASGYYLPPAVMFPPGMGHYPAAAAAMAMGMGMPYAMGLPDLSRGGSSVNHGPQFQVSGMQQQPVAMGIPRVSGGGIFAGSSTIGNGSTRDLSGSKDQTTTNNNSNLKPIKRKQGSSDQFCGSS
notes: Probably Arabidopsis PIF3, as PIF1 and PIF4 are called Arabidopsis; not shown: GST, N-terminal, kept
